According to EP4588921A1, “FREE BASE CRYSTAL FORM OF POLYCYCLIC COMPOUND OF NITROGEN-CONTAINING HETEROCYCLE, AND PREPARATION METHOD THEREFOR” (Jiangsu Hansoh Pharmaceutical Group Co., Ltd., priority 2022, dated 2024):
In brackets after ≈: the same amount, converted by molar mass. Like-named read-outs stand apart in the source and are kept apart here. Values belong to the molecule of their own block, whether it stands above or below them.

Columns and labels:
human OX1R = molecular target: T1, human OX1R (Homo sapiens, UniProt O43613); experiment: Calcium current (FLIPR) in cells stably expressing OX1 receptor; format: cell-based; conditions: CHO-K1/human OX1R cells; agonist OX-A at EC80; FLIPR Tetra
T1 construct: expressed in transfected cells; host or cells: CHO-K1
T1 sequence (O43613 1-425): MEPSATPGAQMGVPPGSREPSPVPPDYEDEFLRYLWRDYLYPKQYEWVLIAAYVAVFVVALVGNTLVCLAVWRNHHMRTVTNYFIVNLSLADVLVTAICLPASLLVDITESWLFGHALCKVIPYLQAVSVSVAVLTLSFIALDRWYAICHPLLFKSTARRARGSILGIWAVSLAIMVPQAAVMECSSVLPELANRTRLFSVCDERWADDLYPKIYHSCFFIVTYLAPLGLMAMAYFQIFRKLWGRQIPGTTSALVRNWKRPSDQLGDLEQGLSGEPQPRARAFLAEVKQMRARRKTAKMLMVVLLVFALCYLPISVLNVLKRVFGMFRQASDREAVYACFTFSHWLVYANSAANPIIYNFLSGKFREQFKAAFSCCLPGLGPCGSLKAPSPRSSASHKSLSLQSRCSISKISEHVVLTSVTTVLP
Method: (§1) Determination of the effect of the compounds of the present invention on calcium current in cells stably expressing OX1 and OX2 receptors 1. Experimental objective: The inhibitory effect of the compounds on calcium current activity in CHO-K1/human OX1R and CHO-K1/human OX2R cells was detected. 2. […] 3. […] The IC50 of the positive compounds and test compounds was determined. 4. Experimental data processing method: FLIPR Tetra was used to read and collect the fluorescence signal value (RFU). […] 5.

human OX2R = molecular target: T2, human OX2R (Homo sapiens, UniProt O43614); experiment: Calcium current (FLIPR) in cells stably expressing OX2 receptor; format: cell-based; conditions: for IC50: CHO-K1/human OX2R cells, agonist OX-B at EC80, FLIPR Tetra; for Select fold: OX1R IC50 over OX2R IC50
T2 construct: expressed in transfected cells; host or cells: CHO-K1
T2 sequence (O43614 1-444): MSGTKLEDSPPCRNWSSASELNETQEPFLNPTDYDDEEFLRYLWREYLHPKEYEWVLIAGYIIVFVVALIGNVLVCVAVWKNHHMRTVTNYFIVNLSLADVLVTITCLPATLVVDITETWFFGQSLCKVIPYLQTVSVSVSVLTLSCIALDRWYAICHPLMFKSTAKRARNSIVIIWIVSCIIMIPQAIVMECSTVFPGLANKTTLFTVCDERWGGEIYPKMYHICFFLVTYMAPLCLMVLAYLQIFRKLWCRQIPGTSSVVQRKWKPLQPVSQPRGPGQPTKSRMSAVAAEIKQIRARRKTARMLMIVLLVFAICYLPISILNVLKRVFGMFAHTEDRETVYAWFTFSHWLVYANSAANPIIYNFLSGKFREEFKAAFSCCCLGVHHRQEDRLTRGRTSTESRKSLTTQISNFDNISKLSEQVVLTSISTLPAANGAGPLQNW
Method: as §1

in vivo = conditions: male, SD, rat, po, 5 mg/kg
Method: SD rats were used as test animals to study the pharmacokinetic behaviour of the compounds of the present invention in rat (plasma) after oral administration at a dose of 5 mg/kg.
The example compound of the present invention, made in house.
Oral administration drug preparation: 20%HP-β-CD in Water
HP-β-CD powder (20 g) was weighed and dissolved in purified water (100 mL), and the mixture was homogeneously mixed by vortex and subjected to ultrasound treatment to afford a clear solution.
The example compound was weighed and added to a 20 mL glass bottle, the solution was added and the mixture was subjected to ultrasound treatment for 10 minutes to afford a colourless clear solution with a concentration of 0.5 mg/mL.
The brain tissues were rinsed with pre-cooled PBS, wiped dry, weighed, and stored at -80°C.
• 1) Acetonitrile (160 µL) was added to plasma sample (40 µL) for precipitation, and the mixture was mixed and centrifuged at 3500 × g for 5 to 20 minutes. • 2) The treated supernatant solution was taken and subjected to LC/MS/MS to analyse the concentrations of the test compounds. LC/MS/MS analysis instrument: AB Sciex API 4000 Qtrap.
• Liquid phase conditions: Shimadzu LC-20AD pump • Chromatographic column: Agilent ZORBAX XDB-C18 (50×2.1 mm, 3.5 µm) mobile phase: liquid A: 0.1% aqueous formic acid solution, liquid B: acetonitrile • Flow rate: 0.4 mL/min • Elution time: 0-4.0 min, the eluent is as follows:
The main pharmacokinetic parameters were calculated using WinNonlin 6.1.

[1] = Solubility experiments in different media (thermodynamic solubility); format: physicochemical; conditions: thermodynamic from solid
Excerpt: The solubility of the free base crystal form I and the free base crystal form II in media such as pH 1.0-8.0 USP buffer, artificial simulated gastric fluid (FaSSGF), fasted-state artificial simulated intestinal fluid (FaSSIF), fed-state artificial simulated intestinal fluid (FeSSIF) and pure water was compared to provide a basis for the evaluation of drugability.

[2] = PK studies in animals of the free base crystal forms; format: in vivo; conditions: SD rats, plasma; for MRT inf: read-out: MRT 0-∞
Method: The pharmacokinetic of the free base crystal form after a single intravenous administration was studied, and the bioavailability of the free base crystal form I and the free base crystal form II after oral administration were calculated.
The free base crystal form I was suspended with 0.5% CMCC-Na aqueous solution, and the free base crystal form […] aqueous solution. After uniformity, the suspensions were administered intragastrically to rats in triplicate at a dosage of 5 mg/kg (30 mg/kg for suspension) for the free base crystal form I and a dosage of 30 mg/kg (suspension) for the free base crystal form II. The free base crystal form I was dissolved with 20% HP-β-CD aqueous solution to obtain a clear solution, and the clear solution was filtered through a filter membrane. The filtered solution was administered via injection to rats in triplicate.

[3] = Hygroscopicity experiment; format: physicochemical
Method: The hygroscopicity of the crystal form I and the crystal form II of compound 9 were investigated under different relative humidity to provide a basis for the storage of the compounds.
The crystal form I and the crystal form II of compound 9 were placed in saturated water vapor at different relative humidities to allow the compound to reach a dynamic equilibrium with the water vapor, and the percentage of weight gain after moisture absorption of the compound after equilibrium was calculated.

[4] = Solid stability experiment (related substances by HPLC); format: physicochemical
Method: The compound physical and chemical stability at high temperature of 60°C, high humidity of 92.5% RH and both high temperature of 50°C and high humidity of 75% RH of the free base crystal form I and the free base crystal form II were investigated to provide a basis for the storage of the compounds.
About 2 mg of the free base crystal form I and the free base crystal form II were taken respectively, and changes of related substances in the crystal forms at high temperature of 60°C, high humidity of 92.5% RH, and both high temperature of 50°C and high humidity of 75%RH for 7 days and 14 days were investigated. The changes of related substances were calculated by HPLC and the chromatographic peak area normalization method.

[5] = Sprague-Dawley (SD), rat, 2 mg/kg, IV, 2MPK, 20%HP-B-CD solution
[6] = Sprague-Dawley (SD), rat, iv, 2 mg/kg, 2MPK, 20%HP-B-CD solution
[7] = Sprague-Dawley (SD), rat, po, 5 mg/kg, 5MPK, 0.5%CMC-Na
[8] = Sprague-Dawley (SD), rat, po, 30 mg/kg, 30MPK, 0.5%CMC-Na suspension
[9] = Room temperature, 92.5%RH, 7 days
[10] = Room temperature, 92.5%RH, 14 days

IC50 (human OX1R): 1200 nM
IC50 (human OX2R): 25.2 nM
Select fold (human OX2R): 48
Structure (SMILES): Cc1nc(N2C[C@H]3CN(C(=O)c4ccc(F)cc4-n4nccn4)C[C@H]3C2)nc(C(C)(C)O)c1F [Compound 10, (4-fluoro-2-(2H-1,2,3-triazol-2-yl)phenyl)((cis)-5-(5-fluoro-4-(2-hydroxypropan-2-yl)-6-methylpyrimidin-2-yl)hexahydropyrrolo [3,4-c]pyrrol-2(1H)-yl)methanone]

IC50 (human OX1R): 263 nM
IC50 (human OX2R): 7.26 nM
Select fold (human OX2R): 36
AUC(0-inf) (in vivo): 335 ng·h/mL
Cmax (in vivo): 420 ng/mL
Tmax (in vivo): 0.5 h
Structure (SMILES): Cc1nc(N2C[C@H]3CN(C(=O)c4c(F)cccc4-c4ccccn4)C[C@H]3C2)nc(C(C)(C)O)c1F [Compound 12, ((3aR,6aS)-5-(5-fluoro-4-(2-hydroxypropan-2-yl)-6-methylpyrimidin-2-yl)hexahydropyrrolo[3,4-c]pyrrol-2(1H)-yl)(2-fluoro-6-(pyridin-2-yl)phenyl)methanone]

solubility at 2 h ([1]; FaSSCoF, 37 °C, fassgf or other biorelevant, FaSSCoF, read-out: Solubility of free base crystal form I): 118 µg/mL (≈ 253 µM)
solubility at 2 h ([1]; FaSSGF (artificial simulated gastric fluid), 37 °C, fassgf or other biorelevant, FaSSGF, read-out: Solubility of free base crystal form I): 269 µg/mL (≈ 577 µM)
solubility at 2 h ([1]; FaSSIF, 37 °C, fassif, FaSSIF, read-out: Solubility of free base crystal form I): 247 µg/mL (≈ 529 µM)
solubility at 2 h ([1]; FeSSCoF, 37 °C, fassgf or other biorelevant, FeSSCoF, read-out: Solubility of free base crystal form I): 182 µg/mL (≈ 390 µM)
solubility at 2 h ([1]; FeSSIF, 37 °C, fessif, FeSSIF, read-out: Solubility of free base crystal form I): 311 µg/mL (≈ 667 µM)
solubility at 2 h ([1]; USP buffer pH 1.0, 37 °C, pH 1, simulated gastric fluid, pH 1.0, read-out: Solubility of free base crystal form I): 799 µg/mL (≈ 1710 µM)
solubility at 2 h ([1]; USP buffer pH 2.0, 37 °C, pH 2, simulated gastric fluid, pH 2.0, read-out: Solubility of free base crystal form I): 141 µg/mL (≈ 302 µM)
solubility at 2 h ([1]; USP buffer pH 3.0, 37 °C, pH 3, aqueous buffer, pH 3.0, read-out: Solubility of free base crystal form I): 87 µg/mL (≈ 186 µM)
solubility at 2 h ([1]; USP buffer pH 4.5, 37 °C, pH 4.5, aqueous buffer, pH 4.5, read-out: Solubility of free base crystal form I): 80 µg/mL (≈ 171 µM)
solubility at 2 h ([1]; USP buffer pH 6.8, 37 °C, pH 6.8, aqueous buffer, pH 6.8, read-out: Solubility of free base crystal form I): 81 µg/mL (≈ 174 µM)
solubility at 2 h ([1]; USP buffer, 37 °C, pH 4, aqueous buffer, pH 4.0, read-out: Solubility of free base crystal form I): 73 µg/mL (≈ 156 µM)
solubility at 2 h ([1]; USP buffer, 37 °C, pH 5, aqueous buffer, pH 5.0, read-out: Solubility of free base crystal form I): 88 µg/mL (≈ 189 µM)
solubility at 2 h ([1]; USP buffer, 37 °C, pH 6, aqueous buffer, pH 6.0, read-out: Solubility of free base crystal form I): 70 µg/mL (≈ 150 µM)
solubility at 2 h ([1]; USP buffer, 37 °C, pH 7, aqueous buffer, pH 7.0, read-out: Solubility of free base crystal form I): 75 µg/mL (≈ 161 µM)
solubility at 2 h ([1]; USP buffer, 37 °C, pH 8, aqueous buffer, pH 8.0, read-out: Solubility of free base crystal form I): 58 µg/mL (≈ 124 µM)
solubility at 2 h ([1]; water, 37 °C, water, H2O, read-out: Solubility of free base crystal form I): 91 µg/mL (≈ 195 µM)
Tmax ([2]; PO, 30MPK, 0.5%CMC-Na suspension): 2.0 h
C0 [2, 5]: 2910 ng/mL
clearance [2, 5]: 15 mL/min/kg
Vd ([2]; Sprague-Dawley (SD), rat, 2 mg/kg, IV, 2MPK, 20%HP-B-CD solution, read-out: Vss): 0.8 L/kg
Tmax ([2]; Sprague-Dawley (SD), rat, 5 mg/kg, PO, 5MPK, 0.5%CMC-Na, read-out: tmax): 0.5 h
AUC(0-inf) [2, 6]: 2280 ng·h/mL
AUC(0-t) [2, 6]: 2280 ng·h/mL
half-life [2, 6]: 0.9 h
MRT inf ([2]; Sprague-Dawley (SD), rat, iv, 2 mg/kg, IV, 2MPK, 20%HP-B-CD solution): 0.9 h
AUC(0-inf) [2, 7]: 2410 ng·h/mL
AUC(0-t) [2, 7]: 2390 ng·h/mL
Cmax [2, 7]: 787 ng/mL
bioavailability [2, 7]: 7%
half-life [2, 7]: 1.2 h
MRT inf ([2]; Sprague-Dawley (SD), rat, po, 5 mg/kg, PO, 5MPK, 0.5%CMC-Na): 2.2 h
AUC(0-inf) [2, 8]: 31000 ng·h/mL
AUC(0-t) [2, 8]: 28400 ng·h/mL
Cmax [2, 8]: 6010 ng/mL
bioavailability [2, 8]: 90.4%
half-life [2, 8]: 1.9 h
MRT inf ([2]; Sprague-Dawley (SD), rat, po, 30 mg/kg, PO, 30MPK, 0.5%CMC-Na suspension): 3.8 h
change in the XRPD pattern (crystal form transformation) ([3]; after 2 cycles of moisture absorption and desorption at 0%-95% relative humidity): no change in the XRPD pattern
weight gain after moisture absorption ([3]; at 80%RH): about 0.3263%
% Increase in total impurity ([4]; 50°C, 75%RH, 7 days): <0.1%
% Maximum increase in single impurity ([4]; 50°C, 75%RH, 7 days): <0.1%
% Increase in total impurity ([4]; 50°C, 75%RH, 14 days): <0.1%
% Maximum increase in single impurity ([4]; 50°C, 75%RH, 14 days): <0.1%
% Increase in total impurity ([4]; 60°C, 7 days): <0.1%
% Maximum increase in single impurity ([4]; 60°C, 7 days): <0.1%
% Increase in total impurity ([4]; 60°C, 14 days): <0.1%
% Maximum increase in single impurity ([4]; 60°C, 14 days): <0.1%
% Increase in total impurity [4, 9]: <0.1%
% Maximum increase in single impurity [4, 9]: <0.1%
% Increase in total impurity [4, 10]: <0.1%
% Maximum increase in single impurity [4, 10]: <0.1%
Structure (SMILES): CC(C)(O)c1nc(N2C[C@H]3CN(C(=O)c4c(F)cccc4-c4ncccn4)C[C@H]3C2)ncc1F [free base crystal form I, ((3aR,6aS)-5-(5-fluoro-4-(2-hydroxyprop-2-yl)pyrimidin-2-yl)hexahydropyrrolo [3,4-c]pyrrol-2(1H)-yl)(2-fluoro-6-(pyrimidin-2-yl)phenyl)methanone]
